In patent US20080064735A1, “Method for controlling harmful organisms in crops of useful plants” (priority 2001, published 2008):

Test system: Plutella xylostella
Assay: Plutella xylostella greenhouse spray test on cauliflower and Bt cauliflower (cry9C)
Format: in vivo
Description: Seven-week-old cauliflower plants (ordinary cauliflower, variety: Marner Allfrüh) and Bt cauliflower ([…], contains cry9C) were sprayed with the test insecticides with the aid of a track sprayer (200 l/ha). After drying, each of the plants was infected with 5 L2 larvae and 5 L3 larvae of Plutella xylostella. After 2, 4 and 7 days (DAA), feeding damage and mortality were scored. The test was carried out in a greenhouse at 23° C. and a relative atmospheric humidity of 60%.

[1] = 10 g active substance/ha, 2 DAA, Bt cauliflower
[2] = 10 g active substance/ha, 2 DAA, cauliflower
[3] = 10 g active substance/ha, 4 DAA, Bt cauliflower
[4] = 10 g active substance/ha, 4 DAA, cauliflower
[5] = 10 g active substance/ha, 7 DAA, Bt cauliflower
[6] = 10 g active substance/ha, 7 DAA, cauliflower
[7] = 30 g active substance/ha, 2 DAA, Bt cauliflower
[8] = 30 g active substance/ha, 2 DAA, cauliflower
[9] = 30 g active substance/ha, 4 DAA, Bt cauliflower
[10] = 30 g active substance/ha, 4 DAA, cauliflower
[11] = 30 g active substance/ha, 7 DAA, Bt cauliflower
[12] = 30 g active substance/ha, 7 DAA, cauliflower
[13] = 1 g active substance/ha, 2 DAA, Bt cauliflower
[14] = 1 g active substance/ha, 2 DAA, cauliflower
[15] = 1 g active substance/ha, 4 DAA, Bt cauliflower
[16] = 1 g active substance/ha, 4 DAA, cauliflower
[17] = 1 g active substance/ha, 7 DAA, Bt cauliflower
[18] = 1 g active substance/ha, 7 DAA, cauliflower
[19] = 3 g active substance/ha, 2 DAA, Bt cauliflower
[20] = 3 g active substance/ha, 2 DAA, cauliflower
[21] = 3 g active substance/ha, 4 DAA, Bt cauliflower
[22] = 3 g active substance/ha, 4 DAA, cauliflower
[23] = 3 g active substance/ha, 7 DAA, Bt cauliflower
[24] = 3 g active substance/ha, 7 DAA, cauliflower
[25] = 100 g active substance/ha, 2 DAA, Bt cauliflower
[26] = 100 g active substance/ha, 2 DAA, cauliflower
[27] = 100 g active substance/ha, 4 DAA, Bt cauliflower
[28] = 100 g active substance/ha, 4 DAA, cauliflower
[29] = 100 g active substance/ha, 7 DAA, Bt cauliflower
[30] = 100 g active substance/ha, 7 DAA, cauliflower

## C/C(=N\C#N)N(C)Cc1ccc(Cl)nc1 [Acetamiprid]
[1]
  % feeding damage: 0%
  % mortality: 100%
[2]
  % feeding damage: 10%
  % mortality: 0%
[3]
  % feeding damage: 0%
  % mortality: 100%
[4]
  % feeding damage: 12%
  % mortality: 0%
[5]
  % feeding damage: 0%
  % mortality: 100%
[6]
  % feeding damage: 15%
  % mortality: 0%
[7]
  % feeding damage: 0%
  % mortality: 100%
[8]
  % feeding damage: 10%
  % mortality: 0%
[9]
  % feeding damage: 0%
  % mortality: 100%
[10]
  % feeding damage: 12%
  % mortality: 0%
[11]
  % feeding damage: 0%
  % mortality: 100%
[12]
  % feeding damage: 15%
  % mortality: 0%

## N#Cc1nn(-c2c(Cl)cc(C(F)(F)F)cc2Cl)c(N)c1[S+]([O-])C(F)(F)F (stereo not drawn) [Fipronil]
[13]
  % feeding damage: 0%
  % mortality: 70%
[14]
  % feeding damage: 10%
  % mortality: 0%
[15]
  % feeding damage: 0%
  % mortality: 100%
[16]
  % feeding damage: 10%
  % mortality: 0%
[17]
  % feeding damage: 0%
  % mortality: 100%
[18]
  % feeding damage: 12%
  % mortality: 0%
[19]
  % feeding damage: 0%
  % mortality: 100%
[20]
  % feeding damage: 10%
  % mortality: 20%
[21]
  % feeding damage: 0%
  % mortality: 100%
[22]
  % feeding damage: 10%
  % mortality: 20%
[23]
  % feeding damage: 0%
  % mortality: 100%
[24]
  % feeding damage: 12%
  % mortality: 20%
[1]
  % feeding damage: 0%
  % mortality: 100%
[2]
  % feeding damage: 8%
  % mortality: 20%
[3]
  % feeding damage: 0%
  % mortality: 100%
[4]
  % feeding damage: 8%
  % mortality: 20%
[5]
  % feeding damage: 0%
  % mortality: 100%
[6]
  % feeding damage: 10%
  % mortality: 50%
[7]
  % feeding damage: 0%
  % mortality: 100%
[8]
  % feeding damage: 4%
  % mortality: 70%
[9]
  % feeding damage: 0%
  % mortality: 100%
[10]
  % feeding damage: 5%
  % mortality: 100%
[11]
  % feeding damage: 0%
  % mortality: 100%
[12]
  % feeding damage: 5%
  % mortality: 100%
[25]
  % feeding damage: 0%
  % mortality: 100%
[26]
  % feeding damage: 1%
  % mortality: 100%
[27]
  % feeding damage: 0%
  % mortality: 100%
[28]
  % feeding damage: 1%
  % mortality: 100%
[29]
  % feeding damage: 0%
  % mortality: 100%
[30]
  % feeding damage: 1%
  % mortality: 100%

## CS/C(C)=N\OC(=O)N(C)SN(C)C(=O)O/N=C(\C)SC [Thiodicarb]
[13]
  % feeding damage: 0%
  % mortality: 100%
[14]
  % feeding damage: 10%
  % mortality: 0%
[15]
  % feeding damage: 0%
  % mortality: 100%
[16]
  % feeding damage: 10%
  % mortality: 0%
[17]
  % feeding damage: 0%
  % mortality: 100%
[18]
  % feeding damage: 15%
  % mortality: 0%
[19]
  % feeding damage: 0%
  % mortality: 100%
[20]
  % feeding damage: 10%
  % mortality: 0%
[21]
  % feeding damage: 0%
  % mortality: 100%
[22]
  % feeding damage: 10%
  % mortality: 0%
[23]
  % feeding damage: 0%
  % mortality: 100%
[24]
  % feeding damage: 15%
  % mortality: 0%
[1]
  % feeding damage: 0%
  % mortality: 90%
[2]
  % feeding damage: 10%
  % mortality: 0%
[3]
  % feeding damage: 0%
  % mortality: 100%
[4]
  % feeding damage: 10%
  % mortality: 0%
[5]
  % feeding damage: 0%
  % mortality: 100%
[6]
  % feeding damage: 15%
  % mortality: 0%
[7]
  % feeding damage: 0%
  % mortality: 100%
[8]
  % feeding damage: 10%
  % mortality: 0%
[9]
  % feeding damage: 0%
  % mortality: 100%
[10]
  % feeding damage: 10%
  % mortality: 0%
[11]
  % feeding damage: 0%
  % mortality: 100%
[12]
  % feeding damage: 15%
  % mortality: 0%
[25]
  % feeding damage: 0%
  % mortality: 100%
[26]
  % feeding damage: 10%
  % mortality: 0%
[27]
  % feeding damage: 0%
  % mortality: 100%
[28]
  % feeding damage: 10%
  % mortality: 0%
[29]
  % feeding damage: 0%
  % mortality: 100%
[30]
  % feeding damage: 10%
  % mortality: 0%

## CCc1nn(C)c(C(=O)NCc2ccc(Oc3ccc(C)cc3)cc2)c1Cl [Tolfenpyrad]
[19]
  % feeding damage: 3%
  % mortality: 10%
[20]
  % feeding damage: 10%
  % mortality: 0%
[21]
  % feeding damage: 10%
  % mortality: 30%
[22]
  % feeding damage: 10%
  % mortality: 0%
[23]
  % feeding damage: 10%
  % mortality: 50%
[24]
  % feeding damage: 10%
  % mortality: 0%
[1]
  % feeding damage: 10%
  % mortality: 0%
[2]
  % feeding damage: 10%
  % mortality: 0%
[3]
  % feeding damage: 10%
  % mortality: 50%
[4]
  % feeding damage: 10%
  % mortality: 0%
[5]
  % feeding damage: 10%
  % mortality: 50%
[6]
  % feeding damage: 10%
  % mortality: 0%
[7]
  % feeding damage: 0%
  % mortality: 60%
[8]
  % feeding damage: 10%
  % mortality: 0%
[9]
  % feeding damage: 0%
  % mortality: 100%
[10]
  % feeding damage: 10%
  % mortality: 0%
[11]
  % feeding damage: 0%
  % mortality: 100%
[12]
  % feeding damage: 10%
  % mortality: 0%
[25]
  % feeding damage: 10%
  % mortality: 20%
[26]
  % feeding damage: 5%
  % mortality: 0%
[27]
  % feeding damage: 10%
  % mortality: 100%
[28]
  % feeding damage: 5%
  % mortality: 20%
[29]
  % feeding damage: 10%
  % mortality: 100%
[30]
  % feeding damage: 5%
  % mortality: 0%
